# Data as given in US20160250213A1, “FORMULATIONS OF AZAINDOLE COMPOUNDS” (priority 2013, published 2016).
# Counter-ions that a name gives are not always drawn. Like-named read-outs stand apart in the source and are kept apart here.
# Columns and labels:
# physchem = conditions: water, thermodynamic from solid
# [1] = Hydrate formation of free base versus humidity / water activity; type: physicochemical; conditions: ambient temperature
# [2] = Water activity tests: competition slurry in IPA/water mixtures; type: physicochemical
# [3] = solvent 1,4-Dioxane, ambient temperature
# [4] = solvent 1-Pentanol, ambient temperature
# [5] = solvent 1-Propanol, ambient temperature
# [6] = solvent 2-Butanol, ambient temperature
# [7] = solvent 2-Ethoxyethanol, ambient temperature
# [8] = solvent 2-Methoxyethanol, ambient temperature
# [9] = solvent 2-Propanol, ambient temperature
# [10] = solvent Acetone, ambient temperature
# [11] = solvent Cyclohexane, ambient temperature
# [12] = solvent Dimethylsulfoxide, ambient temperature
# [13] = solvent Ethanol, ambient temperature
# [14] = solvent Ethylene glycol, ambient temperature
# [15] = solvent Formic acid, ambient temperature
# [16] = solvent Hexane, ambient temperature
# [17] = solvent Methanol, ambient temperature
# [18] = solvent Methyl acetate, ambient temperature
# [19] = solvent Methyl tetrahydrofuran, ambient temperature
# [20] = solvent Methylcyclohexane, ambient temperature
# [21] = solvent Methylethyl ketone, ambient temperature
# [22] = solvent N,N-Dimethylacetamide, ambient temperature
# [23] = solvent N,N-Dimethylformamide, ambient temperature
# [24] = solvent Tetrahydrofuran, ambient temperature
# [25] = solvent Tetralin, ambient temperature
# [26] = solvent t-Butylmethylether, ambient temperature
# [27] = solvent xylene, ambient temperature
# [28] = solvent Acetonitrile, ambient temperature, listed as Form A HCl salt of Compound (1)
# [29] = solvent Chloroform, ambient temperature, listed as Form A HCl salt of Compound (1)
# [30] = solvent Dimethylsulfoxide, ambient temperature, listed as Form A HCl salt of Compound (1)
# [31] = solvent Formic acid, ambient temperature, listed as Form A HCl salt of Compound (1)
smiles,measurement,setting,value
O=C(O)[C@H]1C2CCC(CC2)C1Nc1nc(-c2c[nH]c3ncc(F)cc23)ncc1F (stereo partly shown) [Form A free base Compound (1)],solubility thermodynamic at 2 weeks,physchem,< 100 µg/mL
same,Sol.,"solvent 1,1,2-Trichloroethane, ambient temperature",1.0 mg/mL
same,Sol.,"solvent 1,2-Dichloroethane, ambient temperature",0.4 mg/mL
same,Sol.,"solvent 1,2-Dimethoxyethane, ambient temperature",114.0 mg/mL
same,Resulting Form,[3],Solvate (1:1)
same,Sol.,[3],21.3 mg/mL
same,Sol.,"solvent 1-Butanol, ambient temperature",21.0 mg/mL
same,Resulting Form,[4],No signal
same,Sol.,[4],14.5 mg/mL
same,Resulting Form,[5],Solvate
same,Sol.,[5],15.9 mg/mL
same,Resulting Form,[6],Solvate (1:1)
same,Sol.,[6],14.0 mg/mL
same,Resulting Form,[7],Amorphous
same,Sol.,[7],>113 mg/mL
same,Resulting Form,[8],Amorphous
same,Sol.,[8],>114 mg/mL
same,Sol.,"solvent 2-Methy-1-propanol, ambient temperature",12.2 mg/mL
same,Resulting Form,[9],Solvate(1:1)
same,Sol.,[9],12.9 mg/mL
same,Sol.,"solvent 3-Methyl-1-butanol, ambient temperature",9.7 mg/mL
same,Resulting Form,[10],Solvate
same,Sol.,[10],16.3 mg/mL
same,Sol.,"solvent Acetonitrile, ambient temperature",1.0 mg/mL
same,Sol.,"solvent Anisole, ambient temperature",0.7 mg/mL
same,Sol.,"solvent Butyl acetate, ambient temperature",8.1 mg/mL
same,Sol.,"solvent Chlorobenzene, ambient temperature",0.4 mg/mL
same,Sol.,"solvent Chloroform, ambient temperature",3.8 mg/mL
same,Sol.,"solvent Cumene, ambient temperature",0.3 mg/mL
same,Sol.,[11],<0.1 mg/mL
same,Sol.,"solvent Dichloromethane, ambient temperature",0.9 mg/mL
same,Resulting Form,[12],No signal
same,Sol.,[12],>113 mg/mL
same,Resulting Form,[13],No signal
same,Sol.,[13],35.5 mg/mL
same,Sol.,"solvent Ethyl acetate, ambient temperature",11.6 mg/mL
same,Sol.,"solvent Ethyl ether, ambient temperature",3.5 mg/mL
same,Sol.,"solvent Ethyl formate, ambient temperature",8.1 mg/mL
same,Sol.,[14],10.4 mg/mL
same,Sol.,"solvent Formamide, ambient temperature",7.0 mg/mL
same,Resulting Form,[15],Amorphous
same,Sol.,[15],>89.4 mg/mL
same,Sol.,"solvent Heptane, ambient temperature",<1.5 mg/mL
same,Sol.,[16],<0.1 mg/mL
same,Sol.,"solvent Isobutyl acetate, ambient temperature",4.4 mg/mL
same,Sol.,"solvent Isopropyl acetate, ambient temperature",6.2 mg/mL
same,Resulting Form,[17],Solvate
same,Sol.,[17],25.5 mg/mL
same,Resulting Form,[18],Solvate
same,Sol.,[18],9.4 mg/mL
same,Resulting Form,[19],Solvate(1:1)
same,Sol.,[19],34.8 mg/mL
same,Sol.,"solvent Methylbutyl ketone, ambient temperature",20.0 mg/mL
same,Sol.,[20],<0.1 mg/mL
same,Resulting Form,[21],Amorphous
same,Sol.,[21],27.3 mg/mL
same,Resulting Form,[22],Solvate
same,Sol.,[22],>150 mg/mL
same,Resulting Form,[23],Solvate
same,Sol.,[23],39.2 mg/mL
same,Sol.,"solvent N-Methylpyrrolidinone, ambient temperature",>149 mg/mL
same,Sol.,"solvent Nitromethane, ambient temperature",0.3 mg/mL
same,Sol.,"solvent Pentane, ambient temperature",<0.3 mg/mL
same,Sol.,"solvent Propyl acetate, ambient temperature",7.5 mg/mL
same,Resulting Form,[24],Solvate(1:1)
same,Sol.,[24],61.2 mg/mL
same,Sol.,[25],<0.1 mg/mL
same,Sol.,"solvent Toluene, ambient temperature",0.3 mg/mL
same,Resulting Form,"solvent Water-IPA 1:1, ambient temperature",Solvate
same,Resulting Form,"solvent Water-MeOH 1:1, ambient temperature",Solvate
same,Resulting Form,"solvent Water-MeOH 1:3, ambient temperature",Solvate
same,Sol.,"solvent acetic acid, ambient temperature",42.8 mg/mL
same,stability in solvent systems,solvent systems listed in b344 (acetonitrile to water-acetonitrile),stable
same,Resulting Form,[26],Amorphous
same,Sol.,[26],10.4 mg/mL
same,Resulting Form,[27],Solvate
same,Sol.,[27],0.3 mg/mL
same,water activity where the hydrate form was observed,[1],greater than 0.6
O=C(O)[C@H]1C2CCC(CC2)C1Nc1nc(-c2c[nH]c3ncc(F)cc23)ncc1F (stereo partly shown) [Form A of HCl salt of Compound (1).½H2O],solubility thermodynamic,physchem,600 µg/mL
same,form conversion in competition slurry,[2],converted to Form F
same,Sol.,"solvent 1,1,2-Trichloroethane, ambient temperature, listed as Form A HCl salt of Compound (1)",<0.1 mg/mL
same,Sol.,"solvent 1,2-Dichloroethane, ambient temperature, listed as Form A HCl salt of Compound (1)",1.7 mg/mL
same,Sol.,"solvent 1,2-Dimethoxyethane, ambient temperature, listed as Form A HCl salt of Compound (1)",0.5 mg/mL
same,Sol.,"solvent 1,4-Dioxane, ambient temperature, listed as Form A HCl salt of Compound (1)",0.4 mg/mL
same,Sol.,"solvent 1-Butanol, ambient temperature, listed as Form A HCl salt of Compound (1)",2.9 mg/mL
same,Sol.,"solvent 1-Pentanol, ambient temperature, listed as Form A HCl salt of Compound (1)",3.3 mg/mL
same,Sol.,"solvent 1-Propanol, ambient temperature, listed as Form A HCl salt of Compound (1)",10.7 mg/mL
same,Sol.,"solvent 2-Butanol, ambient temperature, listed as Form A HCl salt of Compound (1)",2.9 mg/mL
same,Sol.,"solvent 2-Methoxyethanol, ambient temperature, listed as Form A HCl salt of Compound (1)",34.1 mg/mL
same,Sol.,"solvent 2-Methy-1-propanol, ambient temperature, listed as Form A HCl salt of Compound (1)",3.5 mg/mL
same,Sol.,"solvent 2-Propanol, ambient temperature, listed as Form A HCl salt of Compound (1)",3.3 mg/mL
same,Sol.,"solvent 3-Methyl-1-butanol, ambient temperature, listed as Form A HCl salt of Compound (1)",3.2 mg/mL
same,Sol.,"solvent Acetone, ambient temperature, listed as Form A HCl salt of Compound (1)",1.5 mg/mL
same,Resulting Form,[28],Solvate
same,Sol.,[28],0.5 mg/mL
same,Sol.,"solvent Anisole, ambient temperature, listed as Form A HCl salt of Compound (1)",<0.1 mg/mL
same,Sol.,"solvent Butyl acetate, ambient temperature, listed as Form A HCl salt of Compound (1)",0.2 mg/mL
same,Sol.,"solvent Chlorobenzene, ambient temperature, listed as Form A HCl salt of Compound (1)",<0.1 mg/mL
same,Resulting Form,[29],Solvate
same,Sol.,[29],<0.1 mg/mL
same,Sol.,"solvent Cumene, ambient temperature, listed as Form A HCl salt of Compound (1)",<0.1 mg/mL
same,Sol.,[11],<0.1 mg/mL
same,Sol.,"solvent Dichloromethane, ambient temperature, listed as Form A HCl salt of Compound (1)",0.1 mg/mL
same,Resulting Form,[30],Solvate
same,Sol.,[30],346.5 mg/mL
same,Sol.,"solvent Ethanol, ambient temperature, listed as Form A HCl salt of Compound (1)",19.9 mg/mL
same,Sol.,"solvent Ethyl acetate, ambient temperature, listed as Form A HCl salt of Compound (1)",0.2 mg/mL
same,Sol.,"solvent Ethyl ether, ambient temperature, listed as Form A HCl salt of Compound (1)",0.1 mg/mL
same,Sol.,"solvent Ethyl formate, ambient temperature, listed as Form A HCl salt of Compound (1)",0.4 mg/mL
same,Resulting Form,[14],Solvate
same,Sol.,"solvent Ethylene glycol, ambient temperature, listed as Form A HCl salt of Compound (1)",108.1 mg/mL
same,Resulting Form,[31],Solvate
same,Sol.,[31],214.0 mg/mL
same,Sol.,"solvent Heptane, ambient temperature, listed as Form A HCl salt of Compound (1)",<0.1 mg/mL
same,Sol.,[16],<0.1 mg/mL
same,Sol.,"solvent Isobutyl acetate, ambient temperature, listed as Form A HCl salt of Compound (1)",0.2 mg/mL
same,Sol.,"solvent Isopropyl acetate, ambient temperature, listed as Form A HCl salt of Compound (1)",0.4 mg/mL
same,Resulting Form,[17],Solvate
same,Sol.,"solvent Methanol, ambient temperature, listed as Form A HCl salt of Compound (1)",46.4 mg/mL
same,Sol.,"solvent Methyl acetate, ambient temperature, listed as Form A HCl salt of Compound (1)",0.6 mg/mL
same,Sol.,"solvent Methyl tetrahydrofuran, ambient temperature, listed as Form A HCl salt of Compound (1)",0.7 mg/mL
same,Sol.,"solvent Methylbutyl ketone, ambient temperature, listed as Form A HCl salt of Compound (1)",0.4 mg/mL
same,Sol.,[20],<0.1 mg/mL
same,Sol.,"solvent Methylethyl ketone, ambient temperature, listed as Form A HCl salt of Compound (1)",0.5 mg/mL
same,Sol.,"solvent Nitromethane, ambient temperature, listed as Form A HCl salt of Compound (1)",<0.1 mg/mL
same,Sol.,"solvent Pentane, ambient temperature, listed as Form A HCl salt of Compound (1)",<0.1 mg/mL
same,Sol.,"solvent Propyl acetate, ambient temperature, listed as Form A HCl salt of Compound (1)",0.8 mg/mL
same,Sol.,"solvent Tetrahydrofuran, ambient temperature, listed as Form A HCl salt of Compound (1)",0.7 mg/mL
same,Sol.,[25],<0.1 mg/mL
same,Sol.,"solvent Toluene, ambient temperature, listed as Form A HCl salt of Compound (1)",<0.1 mg/mL
same,stability in solvent systems,"solvent systems listed in b317 (chlorobenzene to methyl tetrahydrofuran), ambient temperature, 2 weeks",stable
same,Sol.,"solvent t-Butylmethylether, ambient temperature, listed as Form A HCl salt of Compound (1)",0.4 mg/mL
same,Sol.,"solvent xylene, ambient temperature, listed as Form A HCl salt of Compound (1)",<0.1 mg/mL
